“And” between values parts separate entries of the source, which are not always exact repeats. Equal entries are not always repeated.
Tests used:
[1] = system: Fibroblast growth factor (FGF); assay: Interaction between FGF and radioactive IP3, co-elution on Sephadex G-25 / Heparin-Sepharose columns; type: binding; conditions: co-elution from Sephadex G-25, 50 mM Hepes pH 7.4
Description: The mixture was incubated for 1 hour at 4° C.
This type of column fractionate substances according to molecular weight. Substances with molecular weight exceeding 1500 will not penetrate the microspheres of the column and will accordingly elute quite soon after being loaded to the column, while smaller molecules will appear later as they partly or totally penetrate the microspheres depending on the molecular weight.
The incubate was loaded on the column and was uluted with 50 mM Hepes in fractions of 0.4 ml each.
To further determine the interaction the fractions with radioactivity and UV absorbance were loaded on a Heparin-Sepharose CL-6B column (Pharmacia Biotech, Sweden) (volume 25 ml, height 20 cm). […] Elution was performed with 50 mM Hepes, pH 7.4 and each fraction of 1 ml was collected for determination of radioactivity and UV absorbance. A peak with radioactivity but without UV absorption was loaded on a similar Sephadex G-25 column as described above and was eluted with the same type of buffer. Maximum radioactivity was obtained in fraction number 13 i.e. in this case the substance with radioactivity was more retained on the column.

[2] = system: fibroblast growth factor basic (bFGF); assay: bFGF/Matrigel-induced swelling (tumor-like matrix) in nude mice; type: in vivo
Description: In a procedure similar to example 3 fibroblast growth factor basic (bFGF) was used.
D-myo-inositol-1,2,6-trisphosphate (IP3) was administered to five mice while another group of five mice, recieving saline, were a control group.

[3] = system: heterotopic bone formation; assay: Rabbit heterotopic bone (HB) development model; type: in vivo; design: key: ++++: very marked amount of HB; +++: marked amount of HB; ++: between slight and marked amount of HB; +: slight amount of HB; 0: none amount of HB; conditions: 1 mg/kg/hour s.c. osmotic minipump, day 42
Description: Heterotopic bone formation is caused by a local growth and formation of bone. One essential component in this process is the activation of growth factors.
The right hind limb of adult rabbits (weight about 4.0 kg) was immobilized with the knee in extension by means of a plastic splint and an elastic bandage, so that the Vastus intermedius profundus (VIP) muscle was in a shortened position and the hip joint could be moved freely.
According to the standard model the rabbits were treated by removing the splint daily for 2-3 minutes for forcible and rapid manipulation of the knee.
IP3 was administered via subcutaneously operated osmotic minipumps to three rabbits. The dose level was 1 mg/kg/hour, and the time of application period was 14-21 days. The control group, another three rabbits received NaCl-solution by osmotic minipumps.
Anteposterior and lateral radiographs were made of the hind limbs of all rabbits weekly throughout the duration of the experiment which lasted 42 days.
At the end of the experiment the rabbits were killed with an overdose of Mebunat and the left and right femoral bones of each rabbit were dissected and boiled for macroscopic examination.

[4] = system: Vascular permeability factor (VPF); assay: VPF-induced vascular permeability, Evans Blue distribution in guinea pigs; type: in vivo, guinea pig; conditions: 5 mg/kg intravenous; after 60 minutes; control 62 mm^2
Description: Vascular permeability factor (VPF) promotes extravasation and oedema formation. Evans Blue was injected intravenously to 15 guinea pigs. This dye binds to plasma proteins and thereby provides a marker for vascular permeability to macromolecules.
50 mg of VPF was injected to each animal and the distribution of Evans Blue was measured.

eye opening = assay: Eye opening of new-born mice; type: in vivo; conditions: 192 μg/g/day, daily injections day 0 to day 7; controls 13.6 and 13.5 days
Description: Growth factors are involved in processes occuring in new-born mammals. The biological process of eye opening is one example where specific growth factors affect the timing and completeness of the event.
Three groups of mice, 40 animals in each group were used. […] The third group served as a control without any treatment.

scarr formation on skin = assay: Scar formation on scratches of the epidermis of a human hand, topical application; type: in vivo; conditions: topical solution, observation over 10 days
Description: To two of the scratches a solution comprising IP3 was applied topically while two of the scratches served as controls. Occular investigation was performed every day over a period of 10 days.

[5] = Binding constants to the polyamine spermine; type: physicochemical; conditions: 1:1:5 complex; 0.1 M N-tetramethylbromide at 25° C.
Description: The interaction between a polyamine, spermine and different triphosphorylated compounds were investigated in order to determin the binding constants. Spermine is a basic polyamine comprising domains of similar basicity to basic domains in growth factors. Spermine and the different phosphorylated compounds forms different complexes and the 1:1:5 complex was used as the complex for determination of binding constants.
The following binding constants, log Ks was determined in 0.1 M N-tetramethylbromide at 25° C.: […]

Wish tumour cells = assay: Wish tumour cell-induced bone tumours on the calvaria of nude mice; type: in vivo; design: key: +: small and non-severe tumours; ++++: large and severe tumours; conditions: 120 mg/kg/day osmotic minipump for 14 days; individual animals
Description: The injection of a specific cell-line Wish tumour cells, induces proliferation of osteoblasts on the calvaria of nude mice leading to bone tumours.
Wish cells (American Type Culture Collection^R, ATCC (R) F-12784 25 CCL WITH×01166) were used for inocculation. Cells were grown on MEM supplemented with 15% FCS, 2% glutamine and streptomycin-penicillin/garamycin. Cells were grown as a monolayer and trypsinised and split in the ratio 1:3 to 1:4. All together 360 million cells were harvested and suspended in 7 ml for a final concentration of approximately 10 million cells per 0.2 ml.
The osmotic pumps with IP3 and saline respectively were implanted on the same day as the inocculation of Wish-cells were performed.
A 27 gauge needle on a 1 ml syringe was used for the injections of Wish-cells. The injection was done under the skin of the calvaria scratching the periosteum.
At day 13 all animals were given an intraperiotoneal injection of demeclocycline (Sigma Chemicals Co. St Louis). All animals were investigated regarding the occurrence of and size of tumours. The size of tumours were measured according to a scale from
+ which represents small and non-severe tumours to
++++ which represents large and severe tumours.

[6] = system: basic fibroblast growth factor (b FGF); assay: b FGF-induced bone formation on the calvaria of mice; type: in vivo; design: key to Severeness of bone formation: 0: no bone formation; ++++: severe bone formation
Description: Injection of basic fibroblast growth factor (b FGF) stimulates osteoblastic activity and leads to bone formation.
The osmotic minipumps were implanted on day 1.
To the calvaria of each animal, 10 μl of b FGF (concentration 50 μg/ml) was injected four times daily of the period of day 2 to day 4.
After the experimental period of 14 days each animal was investigated macroscopically and the histological preparations were further examined by conventional routines.
Macroscopically visible bone formation was measured according to scale from
0 which represents no bone formation to
++++ which represents severe bone formation

O=P(O)(O)OC1C(O)C(O)C(O)C(OP(=O)(O)O)C1OP(=O)(O)O [IP3, D-myo-inositol-1,2,6-trisphosphate]
interaction between FGF and IP3 [1]: strong interaction
volume of the formed matrix ([2]; Day 1): 180 mm^3
volume of the formed matrix ([2]; Day 3): 120 mm^3
volume of the formed matrix ([2]; Day 5): 110 mm^3
volume of the formed matrix ([2]; Day 7): 120 mm^3
volume of the formed matrix ([2]; Day 8): 110 mm^3
volume of the formed matrix ([2]; Day 9): 120 mm^3
histological examinations of the animals ([2]; group where IP3 was administered): anti-angiogenic effects
Amount of HB ([3]; application of IP3 14 days, individual rabbits, 1 mg/kg): + and 0
Amount of HB ([3]; application of IP3 21 days, individual rabbit): 0
average area covered with Evans Blue [4]: 15 mm^2
eye opening, medium value (eye opening): 15.3 days
scarr formation compared to the control (scarr formation on skin): formed scarr in a delayed manner
log Ks [5]: 5.16
Severeness of tumours (Wish tumour cells): ++++
histological examination of the calvaria ([6]; 120 mg/kg/day for 14 days): anti-angiogenic properties
Severeness of bone formation ([6]; 120 mg/kg/day osmotic minipump for 14 days, individual animals): 0
